# Paper PMC6891286, “Towards the Development of an In vivo Chemical Probe for Cyclin G Associated Kinase (GAK)” (Molecules, 2019)
# How the values were obtained:
# Experiment in all cases: KINOMEscan
# Assay type in all cases: binding
# Details in all cases: 35 at 1 µM; read-out: % inhibition
# AKT1 = target: T1, AKT1 (Homo sapiens, UniProt P31749)
# T1 construct: purchased Eurofins DiscoverX (KINOMEscan)
# Description: (§1) KinomeScan Assay on 35 was performed as previously described at EuroFins DiscoverX (Fremont, CA, USA).
# AKT2 = target: T2, AKT2 (Homo sapiens, UniProt P31751)
# T2 construct: purchased Eurofins DiscoverX (KINOMEscan)
# Description: as §1
# ALK = target: T3, ALK (Homo sapiens, UniProt Q9UM73)
# T3 construct: purchased Eurofins DiscoverX (KINOMEscan)
# Description: as §1
# ASK2 = target: T4, ASK2 (Homo sapiens, UniProt O95382)
# T4 construct: purchased Eurofins DiscoverX (KINOMEscan)
# Description: as §1
# BMX = target: T5, BMX (Homo sapiens, UniProt P51813)
# T5 construct: purchased Eurofins DiscoverX (KINOMEscan)
# Description: as §1
# CAMK2G = target: T6, CAMK2G (Homo sapiens, UniProt Q13555)
# T6 construct: purchased Eurofins DiscoverX (KINOMEscan)
# Description: as §1
# CSNK1D = target: T7, CSNK1D (Homo sapiens, UniProt P48730)
# T7 construct: purchased Eurofins DiscoverX (KINOMEscan)
# Description: as §1
# CSNK1E = target: T8, CSNK1E (Homo sapiens, UniProt P49674)
# T8 construct: purchased Eurofins DiscoverX (KINOMEscan)
# Description: as §1
# EPHA2 = target: T9, EPHA2 (Homo sapiens, UniProt P29317)
# T9 construct: purchased Eurofins DiscoverX (KINOMEscan)
# T9 sequence (P29317 24-976): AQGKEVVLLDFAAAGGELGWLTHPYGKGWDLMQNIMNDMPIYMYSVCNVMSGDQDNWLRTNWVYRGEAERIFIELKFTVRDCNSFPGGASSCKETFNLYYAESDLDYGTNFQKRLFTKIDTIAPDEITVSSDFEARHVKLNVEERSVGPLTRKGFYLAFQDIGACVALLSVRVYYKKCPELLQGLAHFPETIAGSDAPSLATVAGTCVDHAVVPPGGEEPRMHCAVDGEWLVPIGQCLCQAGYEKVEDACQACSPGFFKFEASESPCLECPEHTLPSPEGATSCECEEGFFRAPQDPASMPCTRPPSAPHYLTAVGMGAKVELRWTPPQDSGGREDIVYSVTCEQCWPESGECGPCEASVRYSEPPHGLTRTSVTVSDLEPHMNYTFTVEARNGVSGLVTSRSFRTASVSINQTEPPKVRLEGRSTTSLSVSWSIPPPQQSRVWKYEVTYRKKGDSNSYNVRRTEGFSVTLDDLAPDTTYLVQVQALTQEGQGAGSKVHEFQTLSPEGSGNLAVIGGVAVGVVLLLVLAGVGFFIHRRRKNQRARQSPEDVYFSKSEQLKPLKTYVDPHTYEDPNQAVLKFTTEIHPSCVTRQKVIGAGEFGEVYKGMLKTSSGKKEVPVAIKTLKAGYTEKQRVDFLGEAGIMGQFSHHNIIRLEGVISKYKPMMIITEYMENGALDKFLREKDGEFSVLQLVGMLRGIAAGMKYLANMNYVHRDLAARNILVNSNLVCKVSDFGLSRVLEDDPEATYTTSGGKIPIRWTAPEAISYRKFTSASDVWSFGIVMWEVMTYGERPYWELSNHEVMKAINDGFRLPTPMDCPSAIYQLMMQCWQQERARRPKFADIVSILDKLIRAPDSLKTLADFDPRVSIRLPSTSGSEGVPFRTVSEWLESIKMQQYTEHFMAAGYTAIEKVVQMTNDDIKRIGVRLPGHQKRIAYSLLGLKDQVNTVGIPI
# Description: as §1
# EPHA4 = target: T10, EPHA4 (Homo sapiens, UniProt P54764)
# T10 construct: purchased Eurofins DiscoverX (KINOMEscan)
# Description: as §1
# EPHB3 = target: T11, EPHB3 (Homo sapiens, UniProt P54753)
# T11 construct: purchased Eurofins DiscoverX (KINOMEscan)
# Description: as §1
# ERBB2 = target: T12, ERBB2 (Homo sapiens, UniProt P04626)
# T12 construct: purchased Eurofins DiscoverX (KINOMEscan)
# Description: as §1
# ERK1 = target: T13, ERK1 (Homo sapiens, UniProt P27361)
# T13 construct: purchased Eurofins DiscoverX (KINOMEscan)
# T13 sequence (P27361 whole entry): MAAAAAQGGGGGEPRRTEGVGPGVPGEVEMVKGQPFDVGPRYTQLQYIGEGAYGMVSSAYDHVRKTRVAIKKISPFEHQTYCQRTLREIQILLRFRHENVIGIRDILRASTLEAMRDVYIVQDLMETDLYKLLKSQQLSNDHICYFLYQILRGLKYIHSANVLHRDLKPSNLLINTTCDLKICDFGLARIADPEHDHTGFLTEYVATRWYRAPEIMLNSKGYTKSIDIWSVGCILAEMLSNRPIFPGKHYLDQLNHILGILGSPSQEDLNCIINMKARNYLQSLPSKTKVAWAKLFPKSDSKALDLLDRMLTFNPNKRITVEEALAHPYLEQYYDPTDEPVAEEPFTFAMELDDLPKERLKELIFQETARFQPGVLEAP
# Description: as §1
# ERK8 = target: T14, ERK8 (Homo sapiens, UniProt Q8TD08)
# T14 construct: purchased Eurofins DiscoverX (KINOMEscan)
# T14 sequence (Q8TD08 whole entry): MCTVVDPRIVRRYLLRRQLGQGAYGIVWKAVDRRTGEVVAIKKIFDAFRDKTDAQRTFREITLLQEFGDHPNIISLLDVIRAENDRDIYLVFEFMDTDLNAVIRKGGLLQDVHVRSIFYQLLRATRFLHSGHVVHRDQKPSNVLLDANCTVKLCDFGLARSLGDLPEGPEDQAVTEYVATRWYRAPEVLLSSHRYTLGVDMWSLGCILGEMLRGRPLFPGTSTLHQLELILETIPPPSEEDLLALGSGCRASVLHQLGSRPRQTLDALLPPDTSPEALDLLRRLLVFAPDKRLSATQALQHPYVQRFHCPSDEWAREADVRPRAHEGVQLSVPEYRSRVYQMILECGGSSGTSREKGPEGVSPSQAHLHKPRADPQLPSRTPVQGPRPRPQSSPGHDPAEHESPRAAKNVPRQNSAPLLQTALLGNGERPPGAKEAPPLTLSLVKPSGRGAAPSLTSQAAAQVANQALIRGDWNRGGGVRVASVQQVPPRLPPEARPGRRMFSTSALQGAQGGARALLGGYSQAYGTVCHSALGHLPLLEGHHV
# Description: as §1
# FLT1 = target: T15, FLT1 (Homo sapiens, UniProt P17948)
# T15 construct: purchased Eurofins DiscoverX (KINOMEscan)
# Description: as §1
# GRK3 = target: T16, GRK3 (Homo sapiens, UniProt P35626)
# T16 construct: purchased Eurofins DiscoverX (KINOMEscan)
# Description: as §1
# ITK = target: T17, ITK (Homo sapiens, UniProt Q08881)
# T17 construct: purchased Eurofins DiscoverX (KINOMEscan)
# Description: as §1
# [1] = target: T18, JAK1(JH1domain-catalytic) (Homo sapiens, UniProt P23458)
# T18 construct: JAK1(JH1domain-catalytic); purchased Eurofins DiscoverX (KINOMEscan)
# Description: as §1
# [2] = target: T19, JAK1(JH2domain-pseudokinase) (Homo sapiens, UniProt P23458)
# T19 construct: JAK1(JH2domain-pseudokinase); purchased Eurofins DiscoverX (KINOMEscan)
# Description: as §1
# LATS2 = target: T20, LATS2 (Homo sapiens, UniProt Q9NRM7)
# T20 construct: purchased Eurofins DiscoverX (KINOMEscan)
# Description: as §1
# LRRK2 = target: T21, LRRK2 (Homo sapiens, UniProt Q5S007)
# T21 construct: purchased Eurofins DiscoverX (KINOMEscan)
# Description: as §1
# MARK1 = target: T22, MARK1 (Homo sapiens, UniProt Q9P0L2)
# T22 construct: purchased Eurofins DiscoverX (KINOMEscan)
# Description: as §1
# MEK3 = target: T23, MEK3 (Homo sapiens, UniProt P46734)
# T23 construct: purchased Eurofins DiscoverX (KINOMEscan)
# Description: as §1
# MINK = target: T24, MINK (Homo sapiens, UniProt Q8N4C8)
# T24 construct: purchased Eurofins DiscoverX (KINOMEscan)
# Description: as §1
# MST1R = target: T25, MST1R (Homo sapiens, UniProt Q04912)
# T25 construct: purchased Eurofins DiscoverX (KINOMEscan)
# Description: as §1
# PIK3CA(Q546K) = target: T26, PIK3CA(Q546K) (Homo sapiens, UniProt P42336, Q546K)
# T26 construct: purchased Eurofins DiscoverX (KINOMEscan)
# Description: as §1
# PIK3CB = target: T27, PIK3CB (Homo sapiens, UniProt P42338)
# T27 construct: purchased Eurofins DiscoverX (KINOMEscan)
# Description: as §1
# PRKD2 = target: T28, PRKD2 (Homo sapiens, UniProt Q9BZL6)
# T28 construct: purchased Eurofins DiscoverX (KINOMEscan)
# Description: as §1
# PRKX = target: T29, PRKX (Homo sapiens, UniProt P51817)
# T29 construct: purchased Eurofins DiscoverX (KINOMEscan)
# Description: as §1
# PYK2 = target: T30, PYK2 (Homo sapiens, UniProt Q14289)
# T30 construct: purchased Eurofins DiscoverX (KINOMEscan)
# T30 sequence (Q14289 whole entry): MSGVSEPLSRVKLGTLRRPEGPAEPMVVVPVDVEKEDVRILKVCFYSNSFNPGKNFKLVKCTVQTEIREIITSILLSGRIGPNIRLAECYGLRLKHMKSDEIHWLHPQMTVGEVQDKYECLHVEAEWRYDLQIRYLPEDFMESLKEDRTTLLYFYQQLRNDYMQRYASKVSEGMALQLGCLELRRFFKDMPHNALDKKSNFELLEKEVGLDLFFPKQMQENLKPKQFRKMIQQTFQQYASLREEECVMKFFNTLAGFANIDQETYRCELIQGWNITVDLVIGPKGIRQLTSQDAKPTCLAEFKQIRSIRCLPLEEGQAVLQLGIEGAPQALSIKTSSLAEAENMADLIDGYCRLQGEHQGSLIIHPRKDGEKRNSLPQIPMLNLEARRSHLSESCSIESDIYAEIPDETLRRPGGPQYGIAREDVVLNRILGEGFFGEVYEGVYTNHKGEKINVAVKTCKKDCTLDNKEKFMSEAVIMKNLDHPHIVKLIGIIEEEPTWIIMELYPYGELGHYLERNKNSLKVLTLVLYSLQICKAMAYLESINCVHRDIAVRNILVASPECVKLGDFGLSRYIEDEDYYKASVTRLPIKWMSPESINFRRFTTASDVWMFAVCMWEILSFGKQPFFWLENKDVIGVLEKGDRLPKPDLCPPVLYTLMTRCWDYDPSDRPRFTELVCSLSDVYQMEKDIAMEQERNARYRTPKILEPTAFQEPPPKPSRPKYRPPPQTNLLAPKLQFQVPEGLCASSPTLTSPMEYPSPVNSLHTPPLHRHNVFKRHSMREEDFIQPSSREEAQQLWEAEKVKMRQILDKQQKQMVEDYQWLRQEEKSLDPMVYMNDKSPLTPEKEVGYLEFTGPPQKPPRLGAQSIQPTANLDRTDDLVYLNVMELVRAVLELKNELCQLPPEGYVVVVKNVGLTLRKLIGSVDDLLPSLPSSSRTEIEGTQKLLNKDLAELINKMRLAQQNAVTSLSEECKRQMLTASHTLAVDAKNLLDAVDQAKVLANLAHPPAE
# Description: as §1
# RIPK1 = target: T31, RIPK1 (Homo sapiens, UniProt Q13546)
# T31 construct: purchased Eurofins DiscoverX (KINOMEscan)
# Description: as §1
# [3] = target: T32, RSK1(Kin.Dom.1-N-terminal) (Homo sapiens, UniProt Q15418)
# T32 construct: RSK1(Kin.Dom.1-N-terminal); purchased Eurofins DiscoverX (KINOMEscan)
# Description: as §1
# [4] = target: T33, RSK1(Kin.Dom.2-C-terminal) (Homo sapiens, UniProt Q15418)
# T33 construct: RSK1(Kin.Dom.2-C-terminal); purchased Eurofins DiscoverX (KINOMEscan)
# T33 sequence (Q15418 392-735 limits assumed): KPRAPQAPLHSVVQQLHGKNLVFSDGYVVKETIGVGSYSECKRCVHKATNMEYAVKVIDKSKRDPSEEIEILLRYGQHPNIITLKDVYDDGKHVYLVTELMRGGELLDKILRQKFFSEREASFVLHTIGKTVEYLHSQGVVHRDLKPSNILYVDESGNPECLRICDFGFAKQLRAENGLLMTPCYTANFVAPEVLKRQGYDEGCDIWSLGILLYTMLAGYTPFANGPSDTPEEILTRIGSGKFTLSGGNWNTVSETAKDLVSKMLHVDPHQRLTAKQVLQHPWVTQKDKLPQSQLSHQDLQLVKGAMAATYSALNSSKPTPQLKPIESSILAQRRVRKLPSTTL
# Description: as §1
# [5] = target: T34, RSK3(Kin.Dom.2-C-terminal) (Homo sapiens, UniProt Q15349)
# T34 construct: RSK3(Kin.Dom.2-C-terminal); purchased Eurofins DiscoverX (KINOMEscan)
# Description: as §1
# SBK1 = target: T35, SBK1 (Homo sapiens, UniProt Q52WX2)
# T35 construct: purchased Eurofins DiscoverX (KINOMEscan)
# T35 sequence (Q52WX2 whole entry): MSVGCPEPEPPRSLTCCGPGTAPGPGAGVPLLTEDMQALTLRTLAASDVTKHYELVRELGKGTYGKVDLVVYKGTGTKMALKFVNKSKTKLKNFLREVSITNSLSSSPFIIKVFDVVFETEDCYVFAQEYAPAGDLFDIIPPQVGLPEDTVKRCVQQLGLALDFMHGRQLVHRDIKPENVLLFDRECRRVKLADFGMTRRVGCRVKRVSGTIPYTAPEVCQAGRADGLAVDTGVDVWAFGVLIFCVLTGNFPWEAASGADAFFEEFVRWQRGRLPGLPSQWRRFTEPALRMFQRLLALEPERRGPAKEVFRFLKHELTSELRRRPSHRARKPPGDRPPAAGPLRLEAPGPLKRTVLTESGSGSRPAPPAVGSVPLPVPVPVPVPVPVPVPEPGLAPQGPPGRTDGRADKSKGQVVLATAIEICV
# Description: as §1
# SNARK = target: T36, SNARK (Homo sapiens, UniProt Q9H093)
# T36 construct: purchased Eurofins DiscoverX (KINOMEscan)
# Description: as §1
# TESK1 = target: T37, TESK1 (Homo sapiens, UniProt Q15569)
# T37 construct: purchased Eurofins DiscoverX (KINOMEscan)
# T37 sequence (Q15569 whole entry): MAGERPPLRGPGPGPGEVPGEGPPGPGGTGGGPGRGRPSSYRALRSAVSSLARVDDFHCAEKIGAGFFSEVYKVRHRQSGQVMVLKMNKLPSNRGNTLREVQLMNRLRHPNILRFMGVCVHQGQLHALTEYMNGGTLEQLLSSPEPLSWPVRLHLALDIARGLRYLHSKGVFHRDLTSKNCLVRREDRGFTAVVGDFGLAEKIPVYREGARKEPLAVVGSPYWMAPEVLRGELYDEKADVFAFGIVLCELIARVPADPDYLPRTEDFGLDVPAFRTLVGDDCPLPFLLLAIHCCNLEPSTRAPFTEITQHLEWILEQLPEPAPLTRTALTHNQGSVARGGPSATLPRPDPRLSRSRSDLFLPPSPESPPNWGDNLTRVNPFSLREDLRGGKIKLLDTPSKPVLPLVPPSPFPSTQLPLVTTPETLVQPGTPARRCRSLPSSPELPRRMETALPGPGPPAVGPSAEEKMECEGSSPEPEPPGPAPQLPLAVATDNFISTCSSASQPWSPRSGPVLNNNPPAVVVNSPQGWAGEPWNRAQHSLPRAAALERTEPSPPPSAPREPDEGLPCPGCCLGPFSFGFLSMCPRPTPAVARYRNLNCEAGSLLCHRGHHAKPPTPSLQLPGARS
# Description: as §1
# TIE2 = target: T38, TIE2 (Homo sapiens, UniProt Q02763)
# T38 construct: purchased Eurofins DiscoverX (KINOMEscan)
# Description: as §1
# TNK1 = target: T39, TNK1 (Homo sapiens, UniProt Q13470)
# T39 construct: purchased Eurofins DiscoverX (KINOMEscan)
# Description: as §1
# TRKA = target: T40, TRKA (Homo sapiens, UniProt P04629)
# T40 construct: purchased Eurofins DiscoverX (KINOMEscan)
# T40 sequence (P04629 33-796): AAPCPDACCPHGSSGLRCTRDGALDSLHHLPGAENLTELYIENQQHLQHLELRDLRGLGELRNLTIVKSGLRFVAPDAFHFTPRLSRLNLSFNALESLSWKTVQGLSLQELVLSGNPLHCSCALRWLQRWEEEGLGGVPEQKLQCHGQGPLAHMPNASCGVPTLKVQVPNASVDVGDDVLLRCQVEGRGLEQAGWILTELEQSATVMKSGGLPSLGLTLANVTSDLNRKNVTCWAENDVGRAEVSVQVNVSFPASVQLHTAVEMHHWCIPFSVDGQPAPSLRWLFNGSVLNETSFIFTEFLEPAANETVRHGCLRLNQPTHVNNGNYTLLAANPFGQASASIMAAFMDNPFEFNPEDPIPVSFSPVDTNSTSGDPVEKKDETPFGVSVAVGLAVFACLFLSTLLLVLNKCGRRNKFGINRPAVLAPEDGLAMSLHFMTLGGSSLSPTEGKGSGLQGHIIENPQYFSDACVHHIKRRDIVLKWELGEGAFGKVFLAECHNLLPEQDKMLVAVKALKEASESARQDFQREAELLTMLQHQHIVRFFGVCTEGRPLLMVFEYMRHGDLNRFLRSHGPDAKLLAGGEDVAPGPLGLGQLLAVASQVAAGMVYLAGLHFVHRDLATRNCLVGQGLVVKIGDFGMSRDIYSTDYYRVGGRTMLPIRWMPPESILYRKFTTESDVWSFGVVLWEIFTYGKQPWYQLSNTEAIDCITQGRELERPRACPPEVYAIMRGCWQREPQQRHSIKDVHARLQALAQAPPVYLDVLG
# Description: as §1
# VRK2 = target: T41, VRK2 (Homo sapiens, UniProt Q86Y07)
# T41 construct: purchased Eurofins DiscoverX (KINOMEscan)
# Description: as §1
smiles,measurement,setting,value
"Brc1ccc2nccc(Nc3ccc4cn[nH]c4c3)c2c1 [Compound 35, 6-Bromo-N-(1H-indazol-6-yl)quinolin-4-amine]",activity at 1 µM,AKT1,100%
same,activity at 1 µM,AKT2,100%
same,activity at 1 µM,ALK,100%
same,activity at 1 µM,ASK2,100%
same,activity at 1 µM,BMX,100%
same,activity at 1 µM,CAMK2G,100%
same,activity at 1 µM,CSNK1D,94%
same,activity at 1 µM,CSNK1E,100%
same,activity at 1 µM,EPHA2,100%
same,activity at 1 µM,EPHA4,100%
same,activity at 1 µM,EPHB3,100%
same,activity at 1 µM,ERBB2,100%
same,activity at 1 µM,ERK1,100%
same,activity at 1 µM,ERK8,100%
same,activity at 1 µM,FLT1,100%
same,activity at 1 µM,GRK3,76%
same,activity at 1 µM,ITK,100%
same,activity at 1 µM,[1],100%
same,activity at 1 µM,[2],88%
same,activity at 1 µM,LATS2,88%
same,activity at 1 µM,LRRK2,100%
same,activity at 1 µM,MARK1,100%
same,activity at 1 µM,MEK3,86%
same,activity at 1 µM,MINK,100%
same,activity at 1 µM,MST1R,100%
same,activity at 1 µM,PIK3CA(Q546K),100%
same,activity at 1 µM,PIK3CB,94%
same,activity at 1 µM,PRKD2,90%
same,activity at 1 µM,PRKX,100%
same,activity at 1 µM,PYK2,100%
same,activity at 1 µM,RIPK1,100%
same,activity at 1 µM,[3],100%
same,activity at 1 µM,[4],57%
same,activity at 1 µM,[5],100%
same,activity at 1 µM,SBK1,99%
same,activity at 1 µM,SNARK,100%
same,activity at 1 µM,TESK1,100%
same,activity at 1 µM,TIE2,100%
same,activity at 1 µM,TNK1,69%
same,activity at 1 µM,TRKA,100%
same,activity at 1 µM,VRK2,100%
